Where two headings read alike, the source gives them in different places.
Key:
[1] = male, Sprague-Dawley Crl:CD(SD), in vivo
[2] = male, cynomolgus monkey, in vivo
[3] = male, Beagle, in vivo
TNF/zVAD [4] = settings: dose of 30 mg/kg, Table 2 of WO 2014/125444; cited from earlier work
[5] = target: P-gp (P-glycoprotein, MDR1) (Homo sapiens (Human), UniProt P08183); assay: MDCKII-MDR1 permeability, efflux ratio; format: in vitro ADME; settings: dog, MDCK-MDR1, pH 7.4, MDCKII-MDR1 cells, read-out: ER MDR1
Protocol: The blood brain barrier (BBB) separates circulating blood from the extracellular fluid of the central nervous system (CNS). The passive membrane permeability (Papp) and the P-gp (P-glycoprotein) substrate efflux potential were determined using the MDCKII-MDR1 cell line as an in vitro model of the effective permeability of a compound through the BBB. A bidirectional assay (Apical to Basolateral (A→B) and Basolateral to Apical (B→A)), in the absence and in the presence of GF120918 (a P-gp inhibitor) was conducted using pre-plated MDCKII-MDR1 cells (Corning HTS Transwell-96) obtained from SOLVO Biotechnology. The assay was run at 3 μM for 90 min (minutes) in triplicate using a HBSS+12.5 mM HEPES pH 7.4 transport buffer. Following incubation of samples from donor and receiver, wells were removed and measured by LC-MS/MS. Samples were extracted by protein precipitation with acetonitrile containing an appropriate internal standard (IS) having a known mass and molecular weight. The precipitate was centrifuged for 10 min at 3000 rpm (revolutions per minute). The supernatants were then collected, diluted if necessary, and injected on to the LC-MS/MS system. […] Papp (apparent permeability expressed in nm/sec [nanometer/second]) values were calculated according to the following equation: […]
Where dQ/dt is the permeability rate, C0 is the initial concentration in the donor solution (expressed as IS ratio), A and B are the surface areas of the filter (the surface area of the cell monolayer).
Monolayer efflux ratios (ER) were derived using the following equation: […]

[6] = test system: human cryopreserved hepatocytes; assay: Metabolic stability (hepatocytes); format: in vitro ADME; settings: well-stirred model
Source text: Hepatic clearance is expressed as mL/min/kg.

[7] = test system: human cryopreserved hepatocytes; assay: Metabolic stability (hepatocytes); format: in vitro ADME; settings: from human CLhep
TNF/zVAD [8] = assay: TNF-driven systemic inflammatory response syndrome model; format: in vivo; settings: 5 mg/kg orally 15 minutes before intravenous TNF/zVAD, mice
Source text: The in vivo efficacy of compounds can be determined in mice using a TNF-driven systemic inflammatory response syndrome model as described by Duprez et. al. (2011, Immunity 35(6), 908-918) and Berger et. al. (2015, Cell Death Disc. 1, 15009). In this model system TNF/zVAD (tumor necrosis factor/Z-Val-Ala-DL-Asp-fluoromethylketone, a caspase inhibitor) treatment results in temperature loss and the production of several inflammatory cytokines. The ability of a test compound to inhibit these inflammatory effects can be measured in this model by dosing mice with test compound 15 minutes before administration of TNF/zVAD and measuring the inflammatory response. The dose required to inhibit the inflammatory response is a measure of the compounds efficacy at that dose. Using this model, Compound 42 was orally pre-dosed at 5 mg/kg 15 minutes before intravenous administration of TNF/zVAD and temperature loss in the mice was measured by an implanted temperature chip. […] The decrease in dosing has a number of important potential advantages, including requiring less frequent administration to a patient, increased patient compliance, and improved safety profile such as lower toxicities while achieving similar efficacy.

[9] = test system: FADD-deficient Jurkat cells; assay: Cellular necroptosis assay (human TNFα-induced); format: cell-based; settings: Homo sapiens, 48 h, read-out: Cell IC50
Protocol: Ten concentrations of the test compounds were assessed in duplicate in two different test occasions. […] The day of the experiment cells were diluted to a density of […] (5,000 cells/well) with culture medium and added (40 μL) into the 384-well plate containing 0.2 μL/well of test compounds and reference compounds (CRCs) (200×). Cell plates were then incubated at 37° C.-5% CO2. After 30 min, necroptotic cell death was induced with human TNFα (10 ng/mL) and cell viability was evaluated 48 h later by measuring cellular ATP levels using CellTiter-Glo® kit (Promega). Luminescence was read by using Victor V (Perkin Elmer) multilabel plate reader.

GST-hRIPK1 (8-327) [10] = target: T1, GST-hRIPK1 (8-327) (Homo sapiens (Human), UniProt Q13546); assay: Fluorescent Polarization Binding (FP Binding) assay
Protocol: Fluorescent Polarization Binding (FP Binding) assay (Berger S. B. et al. […] Maki J. L. et al. […] Test Compounds were serially diluted in DMSO at 100 fold final concentrations in the assay (1% DMSO final). […] For negative control the enzyme addition was replaced by assay buffer only. After addition of 5 μL of fluorescent labeled ligand at twice the final concentrations in assay buffer, the plate was incubated at RT for 30 min.

GST-hRIPK1 (8-327) [11] = target: T1, GST-hRIPK1 (8-327); assay: ADP-Glo kinase assay; format: biochemical; settings: 50 μM ATP
Protocol: GST-hRIPK1 (8-327) enzyme was generated by Proteros GmbH by Baculovirus expression system.
Test compounds were diluted in DMSO and 0.1 μL of solution was dispensed to each well of a 384-well white solid microplate. The assay buffer was 50 mM HEPES pH 7.5, 50 mM NaCl, 30 mM MgCl2. The buffer was supplemented with 0.02% CHAPS, 0.01% of Pluronic F127, 0.1 mg/mL BSA and 1 mM DTT. MnCl2, 5 mM, was included in the assay buffer on the day of the experiment. The enzymatic reaction comprised 1.5 μg/mL GST-hRIPK1 (8-327) and 50 μM ATP for receptor interacting protein kinase 1 […]. 5 μL of enzyme and 5 μL of ATP were added to the plate at twice the final assay concentration and incubated at room temperature for 3 hours. Following this reaction, 10 μL of ADP-Glo reagent (Promega) was added to each well and incubated for 40 min at room temperature. This stops the kinase reaction and depletes any remaining ATP. […] The luminescence is then measured with the Envision (PerkinElmer) plate reader. Test compound inhibition was expressed as percent inhibition of internal assay controls. For concentration response curves, normalized data is fit and IC50 determined using XL-fit (IDBS) for Excel. […]
Test compound inhibition was expressed as percent inhibition of internal assay controls. For concentration response curves, normalized data is fit and IC50 determined using XL-fit (IDBS) for Excel. […]

[12] = 10 nM GST-hRIPK1 (8-327), 5 nM fluorescent labeled ligand, read-out: FP IC50

Chain of P-gp (P-glycoprotein, MDR1) (P08183 whole entry): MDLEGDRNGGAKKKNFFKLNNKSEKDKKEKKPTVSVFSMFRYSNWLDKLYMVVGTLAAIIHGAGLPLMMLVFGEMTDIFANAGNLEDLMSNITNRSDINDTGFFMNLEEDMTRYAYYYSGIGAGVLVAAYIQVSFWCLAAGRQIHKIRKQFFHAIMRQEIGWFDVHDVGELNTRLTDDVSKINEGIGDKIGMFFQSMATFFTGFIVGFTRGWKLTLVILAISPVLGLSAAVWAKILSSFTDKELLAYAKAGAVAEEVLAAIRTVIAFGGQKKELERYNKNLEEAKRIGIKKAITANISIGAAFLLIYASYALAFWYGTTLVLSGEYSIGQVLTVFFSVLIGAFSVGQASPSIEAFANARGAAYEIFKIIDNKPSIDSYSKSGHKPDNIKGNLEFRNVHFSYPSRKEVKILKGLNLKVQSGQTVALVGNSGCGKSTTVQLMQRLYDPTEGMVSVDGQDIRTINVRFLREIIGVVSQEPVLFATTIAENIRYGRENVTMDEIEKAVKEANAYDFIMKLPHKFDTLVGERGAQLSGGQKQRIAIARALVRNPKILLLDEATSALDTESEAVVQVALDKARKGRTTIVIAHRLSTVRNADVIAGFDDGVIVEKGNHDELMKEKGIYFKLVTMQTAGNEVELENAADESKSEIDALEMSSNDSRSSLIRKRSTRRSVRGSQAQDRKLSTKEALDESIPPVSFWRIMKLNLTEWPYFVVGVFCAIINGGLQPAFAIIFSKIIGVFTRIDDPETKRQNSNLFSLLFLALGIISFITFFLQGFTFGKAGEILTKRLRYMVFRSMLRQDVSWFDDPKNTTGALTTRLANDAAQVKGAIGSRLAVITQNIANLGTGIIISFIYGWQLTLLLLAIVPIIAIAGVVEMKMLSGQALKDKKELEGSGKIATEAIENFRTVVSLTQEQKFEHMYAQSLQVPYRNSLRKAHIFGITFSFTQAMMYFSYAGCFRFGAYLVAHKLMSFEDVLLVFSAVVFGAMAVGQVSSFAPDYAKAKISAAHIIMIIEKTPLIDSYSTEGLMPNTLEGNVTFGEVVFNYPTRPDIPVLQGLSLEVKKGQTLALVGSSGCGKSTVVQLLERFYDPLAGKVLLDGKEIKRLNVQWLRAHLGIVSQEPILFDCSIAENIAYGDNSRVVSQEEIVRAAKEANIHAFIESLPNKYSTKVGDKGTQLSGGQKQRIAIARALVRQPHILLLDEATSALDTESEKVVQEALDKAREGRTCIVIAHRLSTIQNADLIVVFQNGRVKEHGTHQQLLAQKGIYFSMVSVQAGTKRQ
T1 sequence (Q13546 8-327): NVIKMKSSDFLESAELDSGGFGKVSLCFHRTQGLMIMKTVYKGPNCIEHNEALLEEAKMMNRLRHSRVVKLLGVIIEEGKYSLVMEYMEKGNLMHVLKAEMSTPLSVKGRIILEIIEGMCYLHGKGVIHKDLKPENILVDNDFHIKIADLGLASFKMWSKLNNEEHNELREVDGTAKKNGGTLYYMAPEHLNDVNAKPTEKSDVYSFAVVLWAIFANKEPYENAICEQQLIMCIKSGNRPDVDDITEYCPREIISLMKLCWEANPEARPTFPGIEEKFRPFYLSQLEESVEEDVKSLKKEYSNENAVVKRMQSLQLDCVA

Rat unbound CL [1] [mL/min/kg]	Cyno unbound CL [2] [mL/min/kg]	Dog unbound CL [3] [mL/min/kg]	efflux ratio at 90 min, 3 μM [5]	Human hepatocyte CLhep Avg [6] [mL/min/kg]	IC50 (GST-hRIPK1 (8-327) [10]; [12]) [nM]	Compound	inhibition of temperature loss (TNF/zVAD [4]) [%]	clearance as % of liver blood flow [7]	inhibition of temperature loss (TNF/zVAD [8]) [%]	IC50 [9] [nM]	IC50 (GST-hRIPK1 (8-327) [10]) [nM]	IC50 (GST-hRIPK1 (8-327) [11]) [µM]
77	117	240	6.4	6.8	–	CN1C(=O)[C@@H](NC(=O)c2nnc(Cc3ccccc3)[nH]2)COc2ccccc21 [A, reference compound]	93	approximately 32%	–	–	–	–
113	116	36	1.6	6.3	0.1 to 1000	CN1C(=O)[C@@H](NC(=O)c2nnc(C3(c4ccccc4)CC3)o2)COc2cccnc21 [Example 66, (S)—N-(5-methyl-4-oxo-2,3,4,5-tetrahydropyrido[3,2-b][1,4]oxazepin-3-yl)-5-(1-phenylcyclopropyl)-1,3,4-oxadiazole-2-carboxamide]	–	–	–	–	–	–
91	93	–	24	9.1	0.1 to 1000	CN1C(=O)[C@@H](NC(=O)c2nnc(Cc3ccccc3)[nH]2)[C@H]2C[C@H]2c2cccnc21 [Example 75A, 5-benzyl-N-((1aS,2S,8bR)-4-methyl-3-oxo-1,1a,2,3,4,8b-hexahydrocyclopropa[d]pyrido[2,3-b]azepin-2-yl)-4H-1,2,4-triazole-3-carboxamide]	–	–	–	–	–	–

Further lines, the molecule ahead of its results:

Compound	Rat unbound CL [1] [mL/min/kg]	Cyno unbound CL [2] [mL/min/kg]	Dog unbound CL [3] [mL/min/kg]	efflux ratio at 90 min, 3 μM [5]	Human hepatocyte CLhep Avg [6] [mL/min/kg]	IC50 (GST-hRIPK1 (8-327) [10]; [12]) [nM]	inhibition of temperature loss (TNF/zVAD [4]) [%]	clearance as % of liver blood flow [7]	inhibition of temperature loss (TNF/zVAD [8]) [%]	IC50 [9] [nM]	IC50 (GST-hRIPK1 (8-327) [10]) [nM]	IC50 (GST-hRIPK1 (8-327) [11]) [µM]
CN1C(=O)[C@@H](NC(=O)c2nnc(Cc3ccccc3)[nH]2)COc2cccnc21 [Example 42, (S)-5-benzyl-N-(5-methyl-4-oxo-2,3,4,5-tetrahydropyrido[3,2-b][1,4]oxazepin-3-yl)-4H-1,2,4-triazole-3-carboxamide]	22	42	64	19	0.8	–	–	less than 4%	96	0.1 to 1000	0.1 to 1000	–
O=C(N[C@H]1COC[C@H]2CCCN2C1=O)c1nnc(Cc2ccccc2)[nH]1 [Example 65, N-[(4S,9aR)-5-oxo-octahydropyrrolo[2,1-c][1,4]oxazepin-4-yl]-5-benzyl-4H-1,2,4-triazole-3-carboxamide]	–	–	–	–	–	–	–	–	–	–	–	> 10
O=C(N[C@@H]1C(=O)Nc2c(F)cc(F)cc2[C@@H]2C[C@H]12)c1nnc(Cc2ccccc2)[nH]1 [Example 83A, 5-benzyl-N-((1aS,2S,8bR)-5,7-difluoro-3-oxo-1,1a,2,3,4,8b-hexahydrobenzo[b]cyclopropa[d]azepin-2-yl)-4H-1,2,4-triazole-3-carboxamide]	116	82	–	29	1.0	0.1 to 1000	–	–	–	–	–	–

From patent US9815850B2, “Compounds, compositions and methods” (Denali Therapeutics Inc., priority 2016, dated 2017)
